How the values were obtained:
[1] = tested on: PDE4 (human promonocytic U937 cells); assay: PDE4 inhibition, Phosphodiesterase [3H] cAMP SPA enzyme assay with U937 extract; type: biochemical; conditions: 1 μM [3H] cAMP
Description: A test compound may be screened for activity against 11 of the major classes of mammalian cyclic nucleotide phosphodiesterase (termed PDE 1 through 11). These PDE's may use cAMP or cGMP or both cyclic nucleotides as substrates. […] PDE's for some of the various assays may be fully or partially purified from the following cells/tissues: PDE 1 (bovine heart), PDE 2 (human platelets), PDE 3 (human platelets), PDE4 (human promonocytic U937 cells) and PDE 5 (human platelets).
In the following descriptions, amounts are exemplary, and may be varied. […] Sonicated cell extracts are then centrifuged at 70,000 g for 30 minutes and supernatants removed. Sucrose is added to a final concentration of 0.25 M, then the extracts are aliquoted and stored at −80° C.
Briefly, the assay is run for 60 minutes at room temperature in 50 μL volumes in 1 μM [^3H] cAMP, 50 mM Tris Cl, 10 mM MgCl2 pH 7.5. U937 extract is added such that less than 10% of substrate was consumed. Test compound or vehicle is added to the desired concentration. […] Reactions are performed in duplicate. Reactions are terminated with 50 μl of Yttrium SPA beads and then counted on a Packard Scintillation counter (TopCount™) for 1 minute.

HARBS site of PDE4 [2] = assay: Displacement of [3H]-ROLIPRAM from the high affinity binding site (HARBS) in mouse brain membranes; conditions: for Ratio (PDE4/HARBS): ratio of PDE4 catalytic IC50 to HARBS IC50
Description: (§1) In order to perform this assay, female CD1 mice are sacrificed via the intraperitoneal injection of 100 μL ethanol, and the brain tissue is homogenized in 5 mL of ice-cold Tris-HCl, pH 8.00 supplemented with 1.2 mM MgCl2, 1 mM benzamidine (Sigma; Catalogue No. B 6506) and 0.1 mM PMSF (Sigma; Catalogue No. P 7626). The suspension is centrifuged twice at 30,000×G at 4° C. and then the supernatant discarded. The pellet is resuspended in buffer, and adjusted to a protein concentration of 0.5 mg/mL. Compounds to be tested are dissolved in DMSO and pipetted in triplicate into a 96 well microplate at concentrations ranging from 1 to 30,000 nM. […] The plate is incubated at 4° C. for 1 hour. Contents of the plate are aspirated through a Whatman GF/C filterplate, and rinsed with 4×200 μL ice-cold buffer. The plate is dried overnight, and then 30 μL of Microscint 20 (Packard; Catalogue No. 6013621) is added to each well, and plate is read in the scintillation counter with a sampling time of 2 minutes/well. […] Triplicate determinations should be performed at each concentration.

HARBS site of PDE4 [3] = biological target: T1, HARBS site of PDE4; assay: as above; conditions: for IC50: mouse brain membranes, [3H]-ROLIPRAM displacement
T1 construct: HARBS IC50; other: mouse brain membranes, [3H]-ROLIPRAM displacement; other: mouse brain; other: relative to ROLIPRAM (25, 26) or
Description: as §1

ferret model of emesis = assay: Emetic threshold after intravenous infusion in the ferret model of emesis; type: in vivo, ferret (Mustela putorius furo); conditions: for Emetic Threshold: 5 minute intravenous infusion, 3 hour observation
Description: The most recognized pre-clinical animal model for emesis is the ferret. The ferret undergoes a very characteristic, reproducible and well-documented series of behavioral responses, including backward walking, pawing of the mouth, arching of the back, retching and vomiting when dosed with an emetogenic compound. With respect to PDE4 inhibitors their emetogenic potential has been correlated with the ability of compounds to bind to a conformer of the enzyme to which ROLIPRAM™ binds with nanomolar affinity (the HARBS binding site). The central nervous system (CNS) and emetic effects of PDE4 inhibitors are therefore thought in large part to be due to the interaction of these compounds with this particular conformer of PDE4 which is especially prevalent in both the central and peripheral nervous system as well as in cells of the lumen of the gastrointestinal tract (i.e., parietal cells of the stomach).
Adult male ferrets (Mustela putorius furo, sable, 0.75-1.5 kg, Marshall Farms, USA) were quarantined and acclimated to the testing facility for seven days prior to initiation of the study. For intravenous infusion dosing, a catheter was surgically inserted in the jugular vein a minimum of 14 hours prior to administration of test articles and the catheter was maintained for patency by flushing with heparin solution daily. After surgery for catheter insertion the ferrets were individually housed in cages. Animals were fasted 12-16 hours prior to dosing and during the behavioral assessment period. They were returned to normal food diet after the observation periods. Animals found acceptable for inclusion in the study were randomly assigned to the each of the study groups (n=3 for each of the two treatment groups and n=3 for the vehicle negative control group).
Test compounds (ROLIPRAM™ and Compound 25) were freshly dissolved on the day of dosing in the vehicle, polyethylene glycol (PEG) 200 (Sigma catalogue number P-3015), to the required concentration in order to achieve the target dose. Animals in the control (PEG 200) and treatment (ROLIPRAM™ or Compound 25) groups were administered the dosing formulation at 3 ml/kg by intravenous infusion over a 5 minute period via the catheter inserted in the jugular. Continual observation for signs of emetic behavior were begun for each of the animals in the study groups immediately following completion of the 5 minute dosing period and for a period of three hours. Sequential recordings of emetic behaviour were noted on a separate data collection sheet for each animal which included the time of onset of each event as well as the duration and nature of the event (i.e., retching, gagging, vomiting, back arching, backward walking etc.).
The target doses for each of the test articles are shown below in Table 3. If animals expressed no emetic behaviour at the lowest dosage then animals were dosed again with semi-log increasing doses of test article and the three hour observation period repeated until the emetic threshold (lowest of test doses causing emesis) was reached or until the highest of the 4 target doses was completed. There was a 24 hr. washout period between each of the successive ascending doses of test article to allow the compound to clear the animals' system. […] If the emetic response was minimal at a particular dose level then the next dose level could be performed to confirm the threshold level.

IC50 [1]	reduction of HARBS binding affinity relative to parent non-benzylated compound (HARBS site of PDE4 [3]; relative to ROLIPRAM (25, 26) or ARIFLO (41))	SMILES	Ratio (PDE4/HARBS) (HARBS site of PDE4 [2])	IC50 (HARBS site of PDE4 [3])	Emetic Threshold (ferret model of emesis; ferrets)	Emetic Threshold (ferret model of emesis; ferrets, listed as compound 25)	higher doses required to achieve emesis compared to rolipram (ferret model of emesis; ferrets, i.v. infusion)	emetic behaviour (ferret model of emesis; up to and including highest dose level tested (3 mg/kg) i.v. infusion)	emetic signs (ferret model of emesis; 0.1 mg/kg i.v. infusion)	ferrets exhibiting a definite emetic response (ferret model of emesis; 0.3 mg/kg i.v. infusion, n=3)	mild retches observed (ferret model of emesis; 0.3 mg/kg i.v., in one ferret, over 9 minutes starting at 10 minutes post-dosing)	greater affinity to high affinity site than the concentration required for half-maximal inhibition of PDE4 catalytic activity (HARBS site of PDE4 [2])
400 nM	56 fold	COc1cc(CC2C(=O)NCC2c2ccc(OC)c(OC3CCCC3)c2)ccc1OCc1ccccc1 (centres unmarked) [Compound 25]	1.1	361 nM	>3.0 mg/kg	greater than 3 mg/kg	at least 10 fold	no emetic behaviour whatsoever				
1490 nM		COc1cc(CC2C(=O)NCC2c2ccc(OC)c(OC3CCCC3)c2)ccc1O (centres unmarked) [Compound 26]										
		COc1ccc(C2CNC(=O)C2)cc1OC1CCCC1 (centres unmarked) [ROLIPRAM ™, reference compound]			0.3 mg/kg				Emetic signs were also evident	one of the three ferrets	5	65 fold

SMILES	IC50 [1]	reduction of HARBS binding affinity relative to parent non-benzylated compound (HARBS site of PDE4 [3]; relative to ROLIPRAM (25, 26) or ARIFLO (41))	Ratio (PDE4/HARBS) (HARBS site of PDE4 [2])	IC50 (HARBS site of PDE4 [3])	Emetic Threshold (ferret model of emesis; ferrets)	Emetic Threshold (ferret model of emesis; ferrets, listed as compound 25)	higher doses required to achieve emesis compared to rolipram (ferret model of emesis; ferrets, i.v. infusion)	emetic behaviour (ferret model of emesis; up to and including highest dose level tested (3 mg/kg) i.v. infusion)	emetic signs (ferret model of emesis; 0.1 mg/kg i.v. infusion)	ferrets exhibiting a definite emetic response (ferret model of emesis; 0.3 mg/kg i.v. infusion, n=3)	mild retches observed (ferret model of emesis; 0.3 mg/kg i.v., in one ferret, over 9 minutes starting at 10 minutes post-dosing)	greater affinity to high affinity site than the concentration required for half-maximal inhibition of PDE4 catalytic activity (HARBS site of PDE4 [2])
COc1ccc([C@]2(C#N)CC[C@@H](C(=O)O)CC2)cc1OC1CCCC1 [ARIFLO ™, reference compound]	180 nM		2.4	76 nM								

From patent US7459479B2, “Benzylated PDE4 inhibitors” (Biolipox AB, priority 2000, dated 2008)
